Data from patent publication US8722123B2, “Antimicrobial composition and use as food treatment” (priority 2008, dated 2014).
“And” between values parts separate entries of the source, which are not always exact repeats. Equal values may be shown once. Read-outs that look alike come from different tables or passages of the source.

What was measured:
[1] = test system: S. enteritidis; type: cell-based, Salmonella enteritidis
[2] = test system: S. typhimurium DT 104; type: cell-based, Salmonella typhimurium DT104
[3] = test system: L. monocytogenes; type: cell-based, Listeria monocytogenes
[4] = test system: spores of Bacillus anthracis Sterne; type: cell-based, Bacillus anthracis Sterne (34F2)
[5] = test system: Salmonella on whole chicken with feathers; experiment: Salmonella counts on whole chicken with feathers; type: cell-based; conditions: whole chickens with feathers soaked in 72 L at 21° C. for 5 min, chickens 1-5

SMILES	S. enteritidis counts at 0 min [1] [log CFU/ml]	S. enteritidis counts at 2 min [1] [log CFU/ml]	S. enteritidis counts at 5 min [1] [log CFU/ml]	S. enteritidis counts at 10 min [1] [log CFU/ml]	S. enteritidis counts at 20 min [1] [log CFU/ml]	S. enteritidis counts at 30 min [1] [log CFU/ml]	L. monocytogenes counts at 0 min [3] [log CFU/ml]	L. monocytogenes counts at 2 min [3] [log CFU/ml]	L. monocytogenes counts at 5 min [3] [log CFU/ml]	L. monocytogenes counts at 10 min [3] [log CFU/ml]	L. monocytogenes counts at 20 min [3] [log CFU/ml]	L. monocytogenes counts at 30 min [3] [log CFU/ml]	also measured
CC(=O)CCC(=O)O [0.1% levulinic acid (pH 2.5), levulinic acid]	7.1	7.1	6.9	7.0	6.9	6.9							
CC(=O)O [0.5% acetic acid (pH 3.1), acetic acid]	7.1	7.0	6.8	6.7	6.6	6.5							
CC(=O)CCC(=O)O [0.5% levulinic acid (pH 2.6), levulinic acid]	7.1	6.8	6.9	6.9	6.6	6.7	6.7 ± 0.2	6.7 ± 0.1	6.8 ± 0.3	6.9 ± 0.2	6.7 ± 0.2	6.8 ± 0.2	S. typhimurium DT 104 counts at 0 min [2]: 6.8 log CFU/ml; S. typhimurium DT 104 counts at 1 min [2]: 6.7 log CFU/ml; S. typhimurium DT 104 counts at 2 min [2]: 6.6 log CFU/ml; S. typhimurium DT 104 counts at 5 min [2]: 6.5 log CFU/ml; S. typhimurium DT 104 counts at 10 min [2]: 6.7 log CFU/ml; S. typhimurium DT 104 counts at 20 min [2]: 6.6 log CFU/ml; S. typhimurium DT 104 counts at 30 min [2]: 6.4 log CFU/ml; S. typhimurium DT 104 counts at 60 min [2]: 5.9 log CFU/ml
CCCCCCCCCCCCOS(=O)(=O)[O-].[Na+] [0.05% sodium dodecyl sulfate (pH 4.4), sodium dodecyl sulfate]	7.1	7.0	7.2	7.1	7.2	7.1							Salmonella reduction [1]: did not reduce Salmonella cell numbers; S. typhimurium DT 104 counts at 0 min [2]: 7.0 log CFU/ml; S. typhimurium DT 104 counts at 1 min [2]: 7.0 log CFU/ml; S. typhimurium DT 104 counts at 2 min [2]: 6.8 log CFU/ml; S. typhimurium DT 104 counts at 5 min [2]: 6.9 log CFU/ml; S. typhimurium DT 104 counts at 10 min [2]: 6.8 log CFU/ml; S. typhimurium DT 104 counts at 20 min [2]: 6.9 log CFU/ml; S. typhimurium DT 104 counts at 30 min [2]: 6.9 log CFU/ml; S. typhimurium DT 104 counts at 60 min [2]: 6.9 log CFU/ml; L. monocytogenes counts at 0 min ([3]; 21° C.): 6.6 ± 0.3 log CFU/ml; L. monocytogenes counts at 2 min ([3]; 21° C.): 6.4 ± 0.1 log CFU/ml; L. monocytogenes counts at 5 min ([3]; 21° C.): 6.0 ± 0.1 log CFU/ml; L. monocytogenes counts at 10 min ([3]; 21° C.): 5.0 ± 0.3 log CFU/ml; L. monocytogenes counts at 20 min ([3]; 21° C.): 3.8 ± 0.2 log CFU/ml; L. monocytogenes counts at 30 min ([3]; 21° C.): 3.3 ± 0.1 log CFU/ml
CC(=O)CCC(=O)O [1.0% levulinic acid (pH 2.9), levulinic acid]	6.9	6.7	6.8	6.9	6.9	6.7	6.8 ± 0.3	6.7 ± 0.2	6.6 ± 0.3	6.6 ± 0.3	6.6 ± 0.0	6.6 ± 0.3	
CC(=O)CCC(=O)O [1.5% levulinic acid (pH 2.8), levulinic acid]	6.7	6.7	6.8	6.7	6.4	6.5	6.9 ± 0.1	6.9 ± 0.2	6.9 ± 0.3	6.9 ± 0.1	6.9 ± 0.3	6.8 ± 0.3	
CC(=O)CCC(=O)O [2.0% levulinic acid (pH 2.8), levulinic acid]	6.7	6.7	6.7	6.8	6.5	6.0	6.8 ± 0.3	6.8 ± 0.2	6.9 ± 0.2	6.7 ± 0.2	6.9 ± 0.2	6.8 ± 0.2	
CC(=O)CCC(=O)O [2.5% levulinic acid (pH 2.6), levulinic acid]	6.9	6.8	6.9	6.4	5.8	4.8							
CC(=O)CCC(=O)O [3.0% levulinic acid (pH 2.7), levulinic acid]	6.6	6.8	6.5	6.2	5.1	3.8							CFU % recovery (as compared to control flask F), 0 min [4]: 89% and 70% and 75%; CFU % recovery (as compared to control flask F), 10 min [4]: 81%; CFU % recovery (as compared to control flask F), 45 min [4]: 55%; CFU % recovery (as compared to control flask F), 1 h [4]: 54% and 78% and 80% and 58%; CFU % recovery (as compared to control flask F), 90 min [4]: 64%; CFU % recovery (as compared to control flask F), 2 h [4]: 27% and 45% and 46% and 34%
[Ca+2].[O-]Cl.[O-]Cl [50 ppm calcium hypochlorite]													Salmonella counts after treatment ([5]; left breast): 7.0 log CFU/9 cm^2 and 8.7 log CFU/9 cm^2 and 7.9 log CFU/9 cm^2 and 8.1 log CFU/9 cm^2; Salmonella counts after treatment ([5]; left wing): 7.6 log CFU/9 cm^2 and 8.0 log CFU/9 cm^2 and 8.1 log CFU/9 cm^2 and 8.8 log CFU/9 cm^2 and 8.5 log CFU/9 cm^2; Salmonella counts after treatment ([5]; neck): 7.9 log CFU/9 cm^2 and 8.9 log CFU/9 cm^2 and 8.5 log CFU/9 cm^2 and 8.1 log CFU/9 cm^2; Salmonella counts after treatment ([5]; right breast): 7.9 log CFU/9 cm^2 and 8.3 log CFU/9 cm^2 and 8.0 log CFU/9 cm^2 and 8.5 log CFU/9 cm^2 and 7.8 log CFU/9 cm^2; Salmonella counts after treatment ([5]; right wing): 8.4 log CFU/9 cm^2 and 8.0 log CFU/9 cm^2 and 7.6 log CFU/9 cm^2
CCCCCCCCCCCCOS(=O)(=O)[O-].[Na+] [E]													CFU % recovery (as compared to control flask F), 10 min [4]: 65%; CFU % recovery (as compared to control flask F), 45 min [4]: 94%; CFU % recovery (as compared to control flask F), 90 min [4]: 144%; CFU % recovery (as compared to control flask F), 2 h [4]: 87% and 74% and 103% and 53%; CFU % recovery (as compared to control flask F), 180 min [4]: 95%; CFU % recovery (as compared to control flask F), 3 h [4]: 98% and 68% and 113% and 71%; effectiveness versus water control F [4]: not more effective than the water control F; recovery levels over time [4]: did not decrease
